# Reference: patent US20260053811A1, “METHODS OF TREATING HYPERTENSION IN OBESE SUBJECTS” (Mineralys Therapeutics, Inc., priority 2022, published 2026)
# System: hypertensive subjects
# Experiment: Seated automated office blood pressure (AOBP) in randomized, placebo-controlled, dose-ranging study
# Type: in vivo, human
# Settings: Part 1
# Method: A randomized, double-blinded, placebo-controlled, dose-ranging, multicenter study was conducted to evaluate the effect of orally administered Compound A HBr on blood pressure for the treatment of hypertension in male and female subjects ≥18 years of age.
# The study consists of two parts. For enrollment into Part 1 of the study, a subject's value of plasma renin activity (PRA) must be ≤1 ng/mL/h based on morning measurement. If the value of PRA >1 ng/mL/h based on morning measurement, then subjects may be eligible to enter Part 2 of the study.
# For Part 1, 163 enrolled subjects ≥18 years of age were randomized into 6 equal treatment groups (1:1:1:1:1:1) to 12.5 mg BID, 25 mg BID, 12.5 mg QD, 50 mg QD, 100 mg QD, or placebo. After a review of interim clinical data, the 2 lowest dose levels (12.5 mg QD and 12.5 mg BID) were stopped for future randomization due to a lack of consistent meaningful reduction of blood pressure, but the patients randomized to that point remained in the study through completion. Thus, after the review of interim clinical data, subjects were randomized into 4 equal treatment groups (1:1:1:1) to 25 mg BID, 50 mg QD, 100 mg QD, or placebo.
# For Part 2, 36 enrolled subjects ≥18 years of age were randomized (5:1) to either 100 mg QD Compound A HBr or placebo such that the Compound A HBr treatment group consisted of approximately 30 subjects and the placebo treatment group will consist of approximately 6 subjects.
# Subjects orally administered the assigned study drug (Compound A HBr or placebo) according to the assigned dosing regimen for 8 weeks beginning on Study Day 1. All subjects in Part 1 (regardless of dosing group) received BID dosing to preserve the integrity of the blind; active drug is administered as the morning dose for all QD dose groups. Subjects returned to the research facility or were seen by the clinical investigator or approved home health care professional at the end of Study Weeks 1, 2, 3, 4, 5, 6, 7, and 8 (±2 days) for protocol-defined efficacy and safety assessments and procedures, assessment of adverse events (AEs), and confirmation of compliance with study drug usage. Subjects also completed a telephone visit and blood pressure (BP) check at home approximately 3 days post last dose of study drug. Subjects attended up to 14 full clinic visits, including a pre-Screening visit, a Screening/start of Placebo Run-in visit, a second visit during Placebo Run-in, a clinic visit to initiate the ABPM procedure, a Randomization visit, 8 weekly visits during double-blind treatment, and an end-of-study visit scheduled 4 weeks after the last study treatment for final efficacy and safety assessments.
# An automated oscillometric sphygmomanometer device was used to measure the subjects' systolic and diastolic blood pressure in office after approximately 5 minutes of rest in the seated position.
# The primary endpoint is the change in office-measured (mean of last 2 of 5 unattended measurements using an automated oscillometric sphygmomanometer device after approximately 5 minutes of rest in the seated position) systolic blood pressure (SBP) from baseline to the end of Study Week 8.
# Secondary endpoints of this study were: • (a) Change in 24-hour ambulatory blood pressure monitoring (ABPM) parameters (systolic and diastolic) from baseline to the end of Study Week 7. • (b) Change in office-measured SBP from baseline to the end of Study Weeks 1, 2, 3, 4, 5, 6, and 7. • (c) Change in office-measured diastolic blood pressure (DBP) from baseline to the end of Study Weeks 1, 2, 3, 4, 5, 6, 7, and 8. • (d) Proportion of subjects who achieve office-measured BP of ≤130/80 mm Hg by the end of Study Week 8.
# [1] = 12.5 mg QD, Systolic Blood Pressure Tertile at Baseline Low
# [2] = 12.5 mg QD, Systolic Blood Pressure Tertile at Baseline Middle
# [3] = 12.5 mg QD, Thiazide Diuretic Use at Baseline No
# [4] = 12.5 mg QD, Thiazide Diuretic Use at Baseline Yes
smiles,measurement,setting,value
CC(=O)N[C@H]1CC[C@H](NC(=O)CN2CCN(c3nncc(-c4ccc(C)cc4)n3)CC2)CC1 [Compound A HBr],Mean (SD) Change from Baseline at Week 8 in Automated Office-Measured Systolic Blood Pressure,"12.5 mg QD, Systolic Blood Pressure Tertile at Baseline High",−10.83 (23.91) mmHg
same,Mean (SD) Automated Office-Measured Systolic Blood Pressure at Wk 8,[1],131.17 (12.77) mmHg
same,Mean (SD) Change from Baseline at Week 8 in Automated Office-Measured Systolic Blood Pressure,[1],−3.75 (13.24) mmHg
same,Mean (SD) Automated Office-Measured Systolic Blood Pressure at Wk 8,[2],143.33 (22.23) mmHg
same,Mean (SD) Change from Baseline at Week 8 in Automated Office-Measured Systolic Blood Pressure,[2],−1.17 (21.80) mmHg
same,"Automated Office-Measured Diastolic Blood Pressure, Week 8, Mean (SD)",[3],88.11 (21.40) mmHg
same,Mean (SD) Automated Office-Measured Systolic Blood Pressure at Wk 8,[3],149.11 (26.02) mmHg
same,Mean (SD) Change from Baseline at Week 8 in Automated Office-Measured Diastolic Blood Pressure,[3],1.56 (17.70) mmHg
same,Mean (SD) Change from Baseline at Week 8 in Automated Office-Measured Systolic Blood Pressure,[3],−5.83 (25.10) mmHg
same,"Automated Office-Measured Diastolic Blood Pressure, Week 8, Mean (SD)",[4],74.78 (8.58) mmHg
same,Mean (SD) Automated Office-Measured Systolic Blood Pressure at Wk 8,[4],132.44 (14.02) mmHg
same,Mean (SD) Change from Baseline at Week 8 in Automated Office-Measured Diastolic Blood Pressure,[4],−5.11 (6.26) mmHg
same,Mean (SD) Change from Baseline at Week 8 in Automated Office-Measured Systolic Blood Pressure,[4],−7.89 (14.31) mmHg
same,Mean (SD) Automated Office-Measured Systolic Blood Pressure at Wk 8,"25 mg BID, ACEi/ARB No",123.67 (28.36) mmHg
same,Mean (SD) Change from Baseline at Week 8 in Automated Office-Measured Systolic Blood Pressure,"25 mg BID, ACEi/ARB No",−19.17 (12.25) mmHg
same,Mean (SD) Automated Office-Measured Systolic Blood Pressure at Wk 8,"25 mg BID, ACEi/ARB Yes",132.20 (15.32) mmHg
same,Mean (SD) Change from Baseline at Week 8 in Automated Office-Measured Systolic Blood Pressure,"25 mg BID, ACEi/ARB Yes",−9.04 (14.04) mmHg
same,Mean (SD) Automated Office-Measured Diastolic Blood Pressure at Wk 8,"25 mg BID, ACEi/ARBs No",68.67 (8.33) mmHg
same,Mean (SD) Change from Baseline at Week 8 in Automated Office-Measured Diastolic Blood Pressure,"25 mg BID, ACEi/ARBs No",−10.33 (13.25) mmHg
same,Mean (SD) Automated Office-Measured Diastolic Blood Pressure at Wk 8,"25 mg BID, ACEi/ARBs Yes",76.24 (13.40) mmHg
same,Mean (SD) Change from Baseline at Week 8 in Automated Office-Measured Diastolic Blood Pressure,"25 mg BID, ACEi/ARBs Yes",−2.88 (11.56) mmHg
same,Mean (SD) Automated Office-Measured Diastolic Blood Pressure at Wk 8,"25 mg BID, AHTs 2",79.31 (15.91) mmHg
same,Mean (SD) Automated Office-Measured Systolic Blood Pressure at Wk 8,"25 mg BID, AHTs 2",136.92 (18.45) mmHg
same,Mean (SD) Change from Baseline at Week 8 in Automated Office-Measured Diastolic Blood Pressure,"25 mg BID, AHTs 2",−2.12 (15.46) mmHg
same,Mean (SD) Change from Baseline at Week 8 in Automated Office-Measured Systolic Blood Pressure,"25 mg BID, AHTs 2",−6.15 (13.68) mmHg
same,Mean (SD) Automated Office-Measured Diastolic Blood Pressure at Wk 8,"25 mg BID, AHTs ≥3",72.07 (9.26) mmHg
same,Mean (SD) Automated Office-Measured Systolic Blood Pressure at Wk 8,"25 mg BID, AHTs ≥3",126.40 (13.57) mmHg
same,Mean (SD) Change from Baseline at Week 8 in Automated Office-Measured Diastolic Blood Pressure,"25 mg BID, AHTs ≥3",−5.03 (7.45) mmHg
same,Mean (SD) Change from Baseline at Week 8 in Automated Office-Measured Systolic Blood Pressure,"25 mg BID, AHTs ≥3",−13.57 (13.83) mmHg
same,Mean (SD) Automated Office-Measured Diastolic Blood Pressure at Wk 8,"25 mg BID, Age 65-79 yr",74.71 (17.26) mmHg
same,Mean (SD) Automated Office-Measured Systolic Blood Pressure at Wk 8,"25 mg BID, Age 65-79 yr",133.86 (19.37) mmHg
same,Mean (SD) Change from Baseline at Week 8 in Automated Office-Measured Diastolic Blood Pressure,"25 mg BID, Age 65-79 yr",−0.46 (14.22) mmHg
same,Mean (SD) Change from Baseline at Week 8 in Automated Office-Measured Systolic Blood Pressure,"25 mg BID, Age 65-79 yr",−7.82 (14.88) mmHg
same,Mean (SD) Automated Office-Measured Diastolic Blood Pressure at Wk 8,"25 mg BID, Age <65 yr",76.54 (7.57) mmHg
same,Mean (SD) Automated Office-Measured Systolic Blood Pressure at Wk 8,"25 mg BID, Age <65 yr",127.38 (13.07) mmHg
same,Mean (SD) Change from Baseline at Week 8 in Automated Office-Measured Diastolic Blood Pressure,"25 mg BID, Age <65 yr",−6.69 (8.06) mmHg
same,Mean (SD) Change from Baseline at Week 8 in Automated Office-Measured Systolic Blood Pressure,"25 mg BID, Age <65 yr",−12.31 (13.78) mmHg
same,Mean (SD) Automated Office-Measured Diastolic Blood Pressure at Wk 8,"25 mg BID, Age ≥80 yr",71.00 (NE) mmHg
same,Mean (SD) Automated Office-Measured Systolic Blood Pressure at Wk 8,"25 mg BID, Age ≥80 yr",146.00 (NE) mmHg
same,Mean (SD) Change from Baseline at Week 8 in Automated Office-Measured Diastolic Blood Pressure,"25 mg BID, Age ≥80 yr",−9.50 (NE) mmHg
same,Mean (SD) Change from Baseline at Week 8 in Automated Office-Measured Systolic Blood Pressure,"25 mg BID, Age ≥80 yr",−14.00 (NE) mmHg
same,Mean (SD) Automated Office-Measured Diastolic Blood Pressure at Wk 8,"25 mg BID, BMI 25−30 kg/m^2",78.89 (20.58) mmHg
same,Mean (SD) Change from Baseline at Week 8 in Automated Office-Measured Diastolic Blood Pressure,"25 mg BID, BMI 25−30 kg/m^2",1.11 (16.18) mmHg
same,Mean (SD) Automated Office-Measured Diastolic Blood Pressure at Wk 8,"25 mg BID, BMI <25 kg/m^2",69.25 (9.50) mmHg
same,Mean (SD) Change from Baseline at Week 8 in Automated Office-Measured Diastolic Blood Pressure,"25 mg BID, BMI <25 kg/m^2",−8.25 (7.63) mmHg
same,Mean (SD) Automated Office-Measured Diastolic Blood Pressure at Wk 8,"25 mg BID, BMI >30 kg/m^2",75.00 (6.97) mmHg
